Experimental data published in patent publication US7414043B2, “9-α-substituted estratrienes as selectively active estrogens” (priority 2002, dated 2008).
Like-named read-outs stand apart in the source and are kept apart here.

How the values were obtained:
[1] = test system: estrogen receptor preparations from rat prostates; assay: Competitive 3H-estradiol binding, rat prostate cytosol; conditions: for RBA Rat Prostate: Table 2, 3H-estradiol as ligand; for binding affinity to estrogen receptor of rat prostates compared with rat uteri: qualitative comparison prostate ER versus uterus ER
[2] = test system: estrogen receptor preparations from rat uteri; assay: Competitive 3H-estradiol binding, rat uterus cytosol; conditions: for RBA Rat Uterus: Table 2, 3H-estradiol as ligand
[3] = test system: hERβ; assay: Relative binding affinity to hERβ (Kuiper et al.); design: species or system human; conditions: quotient of RBA hERβ / hERα
Excerpt: In this case, it is assumed that ERβ predominates in the rat prostates over ERα, and ERα predominates in rat uteri over ERβ.

[4] = test system: hERβ; conditions: cited from earlier work
[5] = test system: hypophysectomized juvenile rats; assay: Ovary study, ovary weight in hypophysectomized juvenile rats; type: in vivo, rat; conditions: 0.5 mg/animal/day s.c. over 4 days, compared with estradiol 0.1 mg/animal/day
Method: (§1) The substances were tested in vivo on hypophysectomized juvenile rats. In a modification of this operative method, a GnRH antagonist is administered to the animals. It is examined whether the substance stimulates follicular proliferation (maturation) in the ovary. The ovary weight is the measurement parameter.
(§2) In each case, five animals (body weight 40-50 g) are assigned randomly to the treatment groups. The animals are fed as much as they want with a standard diet (altromin) in Makrolon cages in air-conditioned rooms with a lighting program (10 hours of darkness, 14 hours of light) and are given acidified tap water to drink.
(§3) In both cases, the animals are sacrificed 24 hours after the last administration, and the ovary weight is determined.

[6] = test system: adult female rats; assay: Dissociation of action ovary/uterus and pituitary gland: ovulation and uterus weight; type: in vivo, rat
Method: The studies with respect to the action on uterus growth and ovulation (indirect effect by influencing the secretion of pituitary gland hormones) are performed on adult female rats (body weight of 220-250 g). The substances are subcutaneously administered four times on four consecutive days. The first administration is carried out in the metestrus. One day after the last administration, the autopsy is carried out. The number of ovocytes in the tube (effect on the ovulation) as well as the uterus weight are determined.

[7] = test system: GnRH antagonist-treated animals; assay: Ovary study, ovary weight in GnRH antagonist (Cetrorelix)-treated juvenile rats; type: in vivo, rat
Method: as §1, §2, §3

[8] = Table 1, 3H-estradiol as ligand, estradiol = 100

| Compound | RBA Rat Prostate [1] | binding affinity to estrogen receptor of rat prostates compared with rat uteri [1] | RBA Rat Uterus [2] | other results |
| --- | --- | --- | --- | --- |
| 9α-(2′,2′-Difluorovinyl)-18a-homo-estra-1,3,5(10)-triene-3,16α-diol [Compound 5] | 6 | higher binding affinity to the estrogen receptor of rat prostates | 0.2 |  |
| C[C@]12CCC(O)CC1=CC[C@@H]1[C@@H]2CC[C@]2(C)C(O)CC[C@@H]12 (some centres unmarked) [5-Androstene-diol, reference compound] |  |  |  | Rat prost. ER(RBA) [1, 8]: 5; prost. ER/uterus ER ([1]; ratio of RBA rat prostate ER / rat uterus ER): 50; ERβ/ERα [3]: 3; hERβ RBA* [4]: 17; Rat uterus ER(RBA) [2, 8]: 0.1 |
| C=C[C@]12CC[C@]3(C)C[C@H](O)C[C@H]3[C@@H]1CCc1cc(O)ccc12 [Compound 1, 9α-Vinylestra-1,3,5(10)-triene-3,16α-diol] | 100 | higher binding affinity to the estrogen receptor of rat prostates | 1.2 | increase in ovary weight [5]: comparable increase in ovary weight; effect on ovulation and uterus weight ([6]; s.c. on four days, up to a dose of 0.4 mg/kg of body weight): does not exert any effect |
| C=C[C@]12CC[C@]3(C)[C@@H](F)[C@H](O)C[C@H]3[C@@H]1CCc1cc(O)ccc12 [Compound 2, 17β-Fluoro-9α-vinyl-estra-1,3,5(10)-triene-3,16α-diol] | 200 | higher binding affinity to the estrogen receptor of rat prostates | 2 | action on ovary weight (FIG. 1) ([7]; GnRH antagonist-treated animals, 0.1 and 0.3 mg/animal/day, compared with estradiol 1 mg/animal/day): same action as the dose of 1 mg/animal/day of estradiol; action on ovary weight, low dosages (FIG. 2) ([7]; combination with Cetrorelix, 0.01, 0.03 mg/animal/day): show an ovary action and can eliminate the antagonistic effect of Cetrorelix |
| C[C@]12CC[C@]3(C=C(F)F)c4ccc(O)cc4CC[C@H]3[C@@H]1C[C@@H](O)C2 [Compound 4, 9α-(2′,2′-Difluorovinyl)-estra-1,3,5(10)-triene-3,16α-diol] | 4 | higher binding affinity to the estrogen receptor of rat prostates | 0.2 |  |
| C[C@]12CC[C@@H]3c4ccc(O)cc4CC[C@H]3[C@@H]1CC[C@@H]2O [Estradiol, reference compound] |  |  |  | ED50 of ovulation inhibition and increase in uterus weight ([6]; s.c. four times on four consecutive days): 0.004 mg/kg of body weight |
| C[C@]12CC[C@@H]3c4ccc(O)cc4CC[C@H]3[C@@H]1C[C@@H](O)[C@@H]2O [Estriol] |  |  |  | hERβ RBA* ([4]; relative binding affinity, estradiol = 100, cited from Kuiper et al.): 21 |
